In brackets after ≈: the same amount, converted by molar mass.
Experiments:
A. baumanii K63-58 = test: MIC, multi-resistant clinical isolate; type: cell-based, Acinetobacter baumannii; details: A. baumanii K63-58, resistant to colistin; for MIC: Acinetobacter baumannii, K6358, 24 h, read-out: Antimicrobial activity (MIC); for selectivity index (EC50/MIC): RBC EC50 / MIC
Description: (§1) Working solutions of the test derivatives were prepared with up to 100% DMSO and stored at −20° C. If necessary, the solutions were heated to 40-80° C. before testing to facilitate complete dissolution. Double-distilled water was used in all dilutions prepared. […] A microdilution susceptibility test was used for MIC determination according to Clinical and Laboratory Standards Institute, “Methods for Dilution Antimicrobial Sisceptibility Tests for Bacteria That Graw Aerobically”, Approved Standard M07-A9, edition 2012, with modifications as described by Igumnova et al (Bioorg Med Chem, 2016, 24 (22), 5884-5894).
(§2) Briefly, the bacterial inoculum was adjusted to approximately 2.5-3×10^4 cells/mL in Mueller-Hinton broth (MHB, Difco Laboratories, USA), and incubated in a ratio of 1:1 with test derivatives in polystyrene 96-well flat-bottom microplates (NUNC, Roskilde, Denmark). Positive growth control (without test derivatives) and negative control (without bacteria) were included. The reference antibiotic was oxytetracycline hydrochloride (Sigma Aldrich, Saint Louis, Mo., USA). The microplates were incubated in an EnVision microplate reader (Perkin-Elmer, Turku, Finland) placed in an incubator set to 35° C. for 48 h. The MIC value was defined as the lowest concentration of derivative resulting in no bacterial growth as determined by OD600 measurement. All derivatives were tested in three parallels.
(§3) The MIC was determined as explained above with some exceptions; working solutions of test derivatives were prepared from concentrated DMSO stocks stored at room temperature, the density of the bacterial inoculum was increased 40× to 1-1.2×10^6 cells/mL, enterococci were incubated in Brain Heart Infusion broth (BHIB, Difco Laboratories, USA), the microplates were incubated for 24 h, and the derivatives were tested in four parallels.

A. baumanii K12-21 = test: MIC, multi-resistant clinical isolate; type: cell-based, Acinetobacter baumannii; details: for MIC: Acinetobacter baumannii, K1221, read-out: Antimicrobial activity (MIC); for selectivity index (EC50/MIC): RBC EC50 / MIC
Description: as §1, §2, §3

A. baumanii K44-35 = test: MIC, multi-resistant clinical isolate; type: cell-based, Acinetobacter baumannii; details: for MIC: Acinetobacter baumannii, K4435, read-out: Antimicrobial activity (MIC); for selectivity index (EC50/MIC): RBC EC50 / MIC
Description: as §1, §2, §3

A. baumanii K47-42 = test: MIC, multi-resistant clinical isolate; type: cell-based, Acinetobacter baumannii; details: for MIC: Acinetobacter baumannii, K4742, read-out: Antimicrobial activity (MIC); for selectivity index (EC50/MIC): RBC EC50 / MIC
Description: as §1, §2, §3

A. baumanii K55-13 = test: MIC, multi-resistant clinical isolate; type: cell-based, Acinetobacter baumannii; details: for MIC: Acinetobacter baumannii, K5513, read-out: Antimicrobial activity (MIC); for selectivity index (EC50/MIC): RBC EC50 / MIC
Description: as §1, §2, §3

[1] = tested on: antibiotic susceptible Gram-positive and Gram-negative reference strains; test: MIC assay, ranges over the reference strains; type: cell-based; details: range over S. aureus, C. glutamicum, E. coli, P. aeruginosa reference strains; read-out: MIC values against all the reference strains
Description: as §1, §2

E. coli 50739822 = test: MIC, multi-resistant clinical isolate; type: cell-based, Escherichia coli; details: for MIC: Escherichia coli, read-out: Antimicrobial activity (MIC); for selectivity index (EC50/MIC): RBC EC50 / MIC
E. coli 50579417 = test: MIC, multi-resistant clinical isolate; type: cell-based, Escherichia coli; details: for MIC: Escherichia coli, read-out: Antimicrobial activity (MIC); for selectivity index (EC50/MIC): RBC EC50 / MIC
E. coli 50676002 = test: MIC, multi-resistant clinical isolate; type: cell-based, Escherichia coli; details: for MIC: Escherichia coli, 50676002, read-out: Antimicrobial activity (MIC); for selectivity index (EC50/MIC): RBC EC50 / MIC, E. coli 50676002
S. aureus IHT 99040 = test: MIC, multi-resistant clinical isolate; type: cell-based, Staphylococcus aureus; details: for selectivity index (EC50/MIC): RBC EC50 / MIC; for MIC: Staphylococcus aureus, IHT99040, read-out: Antimicrobial activity (MIC)
Description: as §1, §2, §3

S. aureus strain 85/2082 = test: MIC, multi-resistant clinical isolate; type: cell-based, Staphylococcus aureus; details: for selectivity index (EC50/MIC): RBC EC50 / MIC, S. aureus strain 85/2082; for MIC: Staphylococcus aureus, 85/2082, read-out: Antimicrobial activity (MIC)
Description: as §1, §2, §3

S. aureus N315 = test: MIC, multi-resistant clinical isolate; type: cell-based, Staphylococcus aureus; details: for selectivity index (EC50/MIC): RBC EC50 / MIC, S. aureus N315; for MIC: Staphylococcus aureus, N315, read-out: Antimicrobial activity (MIC)
Description: as §1, §2, §3

S. aureus strain WIS = test: MIC, multi-resistant clinical isolate; type: cell-based, Staphylococcus aureus; details: for selectivity index (EC50/MIC): RBC EC50 / MIC, S. aureus strain WIS; for MIC: Staphylococcus aureus, read-out: Antimicrobial activity (MIC)
Description: as §1, §2, §3

S. aureus NCTC 10442 = test: MIC, multi-resistant clinical isolate; type: cell-based, Staphylococcus aureus; details: for selectivity index (EC50/MIC): RBC EC50 / MIC, S. aureus NCTC 10442; for MIC: Staphylococcus aureus, NCTC10442, read-out: Antimicrobial activity (MIC)
Description: as §1, §2, §3

[2] = tested on: human metastatic melanoma (A2058, ATCC CRL-11147) cells; test: Anti-cancer activity against A2058 cells; type: cell-based; details: A2058, read-out: Anti-cancer IC50
Description: Cytotoxicity of the test compounds was evaluated after 72 hour exposure to human metastatic melanoma (A2058, ATCC CRL-11147) cells.
A2058 cells were grown overnight (2,000 cells/well), and then incubated with the test compounds (range of concentrations) diluted in MEM Earle's supplemented with gentamycin (10 μg/mL), non-essential amino acids (1%), sodium pyruvate (1 mM), L-alanyl-Lglutamine (2 mM), but without FBS (total volume was 100 μl) for […]. Ten μL of CellTiter 96® AQueous One Solution Reagent (Promega, Madison, Wis., USA) was added, and the plates were then further incubated for 1 hour.
Absorbance was measured at 485 nm in a DTX 880 Multimode Detector. Results were calculated as % survival compared to negative (assay media) and positive (Triton X-100; Sigma-Aldrich) controls.

Structure (SMILES)	MIC (A. baumanii K63-58) [µg/mL]	selectivity index (EC50/MIC) (A. baumanii K63-58)	MIC (A. baumanii K12-21) [µg/mL]	selectivity index (EC50/MIC) (A. baumanii K12-21)	MIC (A. baumanii K44-35) [µg/mL]	selectivity index (EC50/MIC) (A. baumanii K44-35)	MIC (A. baumanii K47-42) [µg/mL]	selectivity index (EC50/MIC) (A. baumanii K47-42)	MIC (A. baumanii K55-13) [µg/mL]	selectivity index (EC50/MIC) (A. baumanii K55-13)	MIC (E. coli 50739822) [µg/mL]	selectivity index (EC50/MIC) (E. coli 50739822)	MIC (E. coli 50579417) [µg/mL]	selectivity index (EC50/MIC) (E. coli 50579417)	MIC (E. coli 50676002) [µg/mL]	selectivity index (EC50/MIC) (E. coli 50676002)	selectivity index (EC50/MIC) (S. aureus IHT 99040)	MIC (S. aureus IHT 99040) [µg/mL]	selectivity index (EC50/MIC) (S. aureus strain 85/2082)	MIC (S. aureus strain 85/2082) [µg/mL]	further results
NCCCCN1C(=O)N(CCCCN)C(=O)C(Cc2cc(Br)cc(Br)c2)(Cc2cc(Br)cc(Br)c2)C1=O [7(ii)]	16 (≈ 20.9 µM)	(5)	16 (≈ 20.9 µM)	(5)	16 (≈ 20.9 µM)	(5)	16 (≈ 20.9 µM)	(5)	16 (≈ 20.9 µM)	(5)	8 (≈ 10.4 µM)	(10)	8 (≈ 10.4 µM)	(10)	8 (≈ 10.4 µM)	(10)	(21)	4 (≈ 5.22 µM)	(21)	4 (≈ 5.22 µM)	MIC [1]: 1 to 8 µg/mL (≈ 1.31 to 10.4 µM); selectivity index (EC50/MIC) (S. aureus N315): (21); MIC (S. aureus N315): 4 µg/mL (≈ 5.22 µM); selectivity index (EC50/MIC) (S. aureus strain WIS): (21); MIC (S. aureus strain WIS): 4 µg/mL (≈ 5.22 µM); selectivity index (EC50/MIC) (S. aureus NCTC 10442): (21); MIC (S. aureus NCTC 10442): 4 µg/mL (≈ 5.22 µM); IC50 [2]: 1 µg/mL (≈ 1.31 µM)
CC(C)(C)c1cc(CC2(Cc3cc(C(C)(C)C)cc(C(C)(C)C)c3)C(=O)N(CCCCN)C(=O)N(CCCCN)C2=O)cc(C(C)(C)C)c1 [7(iii), 1,3-bis(4-aminobutyl)-5,5-bis(3,5-di-tert-butylbenzyl)-pyrimidin-2,4,6(1H,3H,5H)-trione]	4 (≈ 5.93 µM)	(<1)	4 (≈ 5.93 µM)	(<1)	4 (≈ 5.93 µM)	(<1)	4 (≈ 5.93 µM)	(<1)	4 (≈ 5.93 µM)	(<1)	4 (≈ 5.93 µM)	(<1)	4 (≈ 5.93 µM)	(<1)	8 (≈ 11.9 µM)	(<0.5	(<2)	2 (≈ 2.96 µM)	(<2)	2 (≈ 2.96 µM)	MIC [1]: 0.25 to 4 µg/mL (≈ 0.37 to 5.93 µM); selectivity index (EC50/MIC) (S. aureus N315): (<2); MIC (S. aureus N315): 2 µg/mL (≈ 2.96 µM); selectivity index (EC50/MIC) (S. aureus strain WIS): (<2); MIC (S. aureus strain WIS): 2 µg/mL (≈ 2.96 µM); selectivity index (EC50/MIC) (S. aureus NCTC 10442): (<2); MIC (S. aureus NCTC 10442): 2 µg/mL (≈ 2.96 µM); IC50 [2]: 1 µg/mL (≈ 1.48 µM)
NCCCCN1C(=O)N(CCCCN)C(=O)C(Cc2ccc3ccccc3c2)(Cc2ccc3ccccc3c2)C1=O [7(iv), 1,3-bis(4-aminobutyl)-5,5-bis(naphtalen-2-yl-methyl)-pyrimidin-2,4,6(1H,3H,5H)-trione]	16 (≈ 29.1 µM)	(15)	32 (≈ 58.1 µM)	(8)	32 (≈ 58.1 µM)	(8)	32 (≈ 58.1 µM)	(8)	32 (≈ 58.1 µM)	(8)	16 (≈ 29.1 µM)	(15)	16 (≈ 29.1 µM)	(15)	16 (≈ 29.1 µM)	(15)	(30)	8 (≈ 14.5 µM)	(30)	8 (≈ 14.5 µM)	selectivity index (EC50/MIC) (S. aureus N315): (30); MIC (S. aureus N315): 8 µg/mL (≈ 14.5 µM); selectivity index (EC50/MIC) (S. aureus strain WIS): (30); MIC (S. aureus strain WIS): 8 µg/mL (≈ 14.5 µM); selectivity index (EC50/MIC) (S. aureus NCTC 10442): (30); MIC (S. aureus NCTC 10442): 8 µg/mL (≈ 14.5 µM); IC50 [2]: 1 µg/mL (≈ 1.82 µM)
